According to US20080114063A1, “Use of 2,5-Dihydroxybenzene Derivatives for the Treatment of Tissue Reactive Diseases” (Action Medicines, priority 2006, published 2008):
“Also recorded” adds a separate entry of the source.

Legend:
[1] = test system: intestinal inflammatory disease (IID) induced by 3% dextran sulfate sodium; test: Intestinal inflammatory disease induced by dextran sulfate sodium (DSS) in the mouse; format: in vivo, mice of strain C57BL/6J-664; settings: for disease clinical score (0 to 6 scale): two DSS cycles
From the text: The induction of the intestinal inflammatory disease described below is a representative model for the evaluation of therapeutic strategies to treat Crohn's disease and ulcerative colitis. 7-8 week old female mice of strain C57BL/6J-664 were used. The intestinal inflammatory disease (IID) was induced by feeding the mice with 3% dextran sulfate sodium (DSS; MW 40,000) dissolved in drinking water in 2 cycles. Each cycle consisted of 7 days with 3% DSS in the drinking water separated by 7 days with regular water. A daily clinical evaluation of the animals was performed in which the body weight, the consistency of the faeces and the presence of blood in the faeces were determined. Thus, the validated score of the clinical activity of the disease was evaluated with a 0 to 6 scale, considering the following parameters: consistency of the faeces, presence or absence of fecal blood and loss of weight.
At the end of the first cycle of exposure to DSS, the mice were divided into the following treatment groups: a first group was administered intraperitoneal (i.p) injections of vehicle (0.9% NaCl). Another group received intramuscular injections of Solu-Medrol, a standard IID treatment, at a dose of 10 mg/kg/day. A third group was administered i.p. injections of potassium 2,5-diacetroxybenzene sulfonate (DABS, 100 mg/kg/day). The last group was treated orally with 125 mg/kg day of DABS.

OVA-sensitized mice = test: Experimentally induced (OVA) asthma in mice: methacholine bronchoconstriction and BAL cell count; format: in vivo, Balb/c mice; settings: for methacholine induced bronchoconstriction (Penh): methacholine 5 and 20 mg/mL
Description: 6-9 week old Balb/c mice were used. The ovoalbumin (OVA)/aluminum complex was obtained after dissolving OVA (500 μg/mL) in PBS, and mixing it with an equal volume of 10% aluminum potassium sulfate at pH 6.5 for 1 hour. After centrifuging the pellet (750×g for 5 minutes) the OVA/aluminum pellet was resuspended in distilled water. On day 0, the mice were intraperitoneally injected with 100 μg of OVA/aluminum. Eight days later, the mice were anesthetized and exposed to 250 μg of OVA. Later, they were administered 125 μg of OVA on days 15, 18 and 21. Each […] received sublingual administration of OVA.
The following treatments were administered to the animals: (i.p.) vehicle from day 2, potassium 2,5-diacetoxybencene sulfonate (DABS; 100 mg/kg/day, i.p.) from day 2, DABS (100 mg/kg/day, i.p.) from day 8 and Combivent (20 μg/200 μg in aerosol) on days 20, 21 and 22, the latter as a reference treatment.
In order to evaluate the pulmonary function, the response to methacholine in conscious mice was determined, 24 hours after the last exposure to OVA. The mice were exposed to increasing methacholine concentrations (5 and 20 mg/mL) in the form of aerosol using an ultrasonic nebulizer during 2 minutes. The degree of bronchoconstriction was expressed as the enhanced […] (Penh) which correlates to the mouse air resistance, impedance and pressure within the pleura. The Penh was calculated using the formula Penh=[(Te/Rt−1)×(PEF/PIF)], where Te is expiratory time, Rt is relaxation time, PEF is peak expiratory flow and PIF is peak inspiratory flow×0.67 coefficient.
After measuring airway hyperreactivity, the mice were sacrificed and bronchoalveolar lavage (BAL) of the right lung was collected. The total number of cells in the BAL fluid was determined.

Leishmania major = test: Experimental infection with Leishmania major in mouse paw pad (lesion size); format: in vivo, Leishmania major in BALB/c female mice
From the text: This model is based in the massive inoculation of Leishmania promatigotes in the mouse paw pad. Under these conditions, the parasite induces a progressive inflammation correlated with the multiplication of parasites at the site of inoculation. BALB/c strain female mice that developed severe and uncontrolled injuries were used (Foote S J, Handman E. Brief Funct Genomic Proteomic, 2005). This model has been used in pharmacology to monitor the therapeutic capacity of new leishmanicide compounds and the preventive capacity of potential vaccines against leishmaniasis ((Nelson K G et al. Antimicrob Agents Chemother. 2006).
The animals were inoculated with 5×10^6 of L. major promastigotes (strain Hervás) in 50 μL of PBS into the plantar pad of the right back paw. As negative control of the infection, a group of mice inoculated with 50 μL of PBS was used. The sizes of the lesions were measured every 7 days until the animals were sacrificed (week 9) using a Vernier caliper. The thickness of the right back paw (infected) and the left back paw (uninfected) of all the animals was measured at the base of the fifth toe. The progression of the inflammation is represented as the difference in thickness between the infected and the non-infected paws. […]

[2] = test system: fibroblast growth factor-1 (FGF-1) induced mitogenesis in Balb/c 3T3 fibroblasts; test: Inhibition of FGF-1 induced mitogenesis in quiescent Balb/c 3T3 fibroblast cultures; format: cell-based; settings: quiescent cultures of Balb/c 3T3 fibroblasts
Description: The evaluated compounds were used in the form of potassium salt, except in the first case in which calcium salt was used. The experiments were carried out as described in Fernández-Tornero C et al. J Biol Chem, 2003.

[3] = target: fibroblast growth factor-1 (FGF-1) (Homo sapiens, UniProt P05230); test: Co-crystallization with FGF-1 (crystal diffraction); format: binding; settings: electron density contoured at 1σ, site close to that of 2,5-dihydroxybenzenesulfonic acid
Sequence of fibroblast growth factor-1 (FGF-1) (P05230 whole entry, species assumed): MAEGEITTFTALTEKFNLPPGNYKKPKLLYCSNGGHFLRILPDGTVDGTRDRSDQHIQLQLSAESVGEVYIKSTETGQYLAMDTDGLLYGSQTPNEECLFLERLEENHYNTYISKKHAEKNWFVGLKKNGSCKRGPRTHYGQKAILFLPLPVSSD
Description: Based on the crystal diffraction of the FGF-1:2-acetoxy-5-hydroxybenzene sulfonic acid, FGF-1:5-acetoxy-2-hydroxybenzene sulfonic acid and FGF-1:2,5-diacetoxybenzene sulfonic acid complexes, the structures of the complexes were calculated and represented. FIGS. 20, 21 and 22, which show the surface of the dyed protein according to its electrostatic potential (light grey: negative charge; dark grey: positive charge; white: lack of charge), show the manner in which 2-acetoxy-5-hydroxybenzene sulfonic acid, 5-acetoxy-2-hydroxybenzene sulfonic acid and 2,5-diacetoxybenzene sulfonic acid interact, respectively, with FGF-1.

rat C6 glioma cells = test: Proliferation of rat glioma C6 cells (crystal violet); format: cell-based; settings: 500 μM, 48 h, crystal violet absorbance at 595 nm
Description: FIG. 19. […] 5A-2HBS and 2A-5HBS were administered or not (control) after seeding C6 cells in 24 well plates (10^4 per well) until they were fixed 48 hours later. Data are expressed as the mean ±SEM of the percentage of absorbance at 595 nm obtained in control cultures, which is proportional to the number of cells stained with crystal violet. Data were obtained from 3 cultures for each treatment and 6 control cultures.
The cell line used was the C6 cell line and the experiment was carried out as described in examples 2 and 3. Once adhered, the cells were treated or not (controls) with (5A-2HBS) (500 μM) or (2A-5HBS) (500 μM) and they were allowed to proliferate for 48 h. After this time the glioma cell proliferation was evaluated by means of staining the fixed cells with crystal violet. The number of cells is proportional to the amount of retained dye, which was determined spectrophotometrically by measuring the absorbance at 595 nm once the dye was extracted from the cells.

Question: What does the source list for CC(=O)Oc1ccc(OC(C)=O)c(S(=O)(=O)[O-])c1.[K+] [DABS, potassium 2,5-diacetoxybenzene sulfonate]?
Answer: disease clinical score (0 to 6 scale) ([1]; 100 mg/kg/day i.p.): reduced; disease clinical score (0 to 6 scale) ([1]; 125 mg/kg/day orally): reduced; loss of body weight produced by DSS ([1]; DABS 100 mg/kg/day i.p. or 125 mg/kg/day p.o., two 7-day DSS cycles, vs vehicle): reduced; also recorded: significant effect on the body weight; efficacy compared with standard treatment Solu-Medrol (body weight and clinical score) ([1]; DABS i.p. or p.o. vs Solu-Medrol 10 mg/kg/day i.m.): not lower (in some points it is higher); methacholine induced bronchoconstriction (Penh) (OVA-sensitized mice; 100 mg/kg/day i.p. from day 2): completely prevented; methacholine induced bronchoconstriction (Penh) (OVA-sensitized mice; 100 mg/kg/day i.p. from day 8): completely prevented; presence of cells in bronchoalveolar lavage (BAL) (OVA-sensitized mice; 100 mg/kg/day i.p., right lung BAL, vs vehicle): significantly reduced; increase of the Penh after exposure to methacholine vs saline (OVA-sensitized mice; mouse, in vivo): do not show a significant increase of the Penh; reduction of BAL cells compared with Combivent (OVA-sensitized mice; mouse, in vivo): even more than the treatment with Combivent; size of the lesion (paw thickness difference) (Leishmania major; 200 mg/kg daily i.p. from day 0 to week 9, effect from the third week post-infection): statistically significant reduction in the size of the lesion; size of the lesion (paw thickness difference) (Leishmania major; 200 mg/kg/day i.p. from the third week after inoculation, effect from the eighth week): significantly smaller; inhibition of FGF-1 induced mitogenesis [2]: Inhibition of FGF-1 induced mitogenesis

Question: How did the “state of the compound when bound to FGF-1 (co-crystal electron density)” value (“state of the compound when bound” below) [3] turn out when CC(=O)Oc1ccc(O)cc1S(=O)(=O)O [2-acetoxy-5-hydroxybenzenesulfonic acid] was run?
Answer: conserves the acetoxyl group in position 2 when it binds to the protein

Question: Which “inhibition of FGF-1 induced mitogenesis” value [2] does the source give for “calcium 2-acetoxy-5-hydroxybenzenesulfonate [2A-5HBS]” here?
Answer: Inhibition of FGF-1 induced mitogenesis

Question: How did the “state of the compound when bound” value [3] turn out when CC(=O)Oc1ccc(OC(C)=O)c(S(=O)(=O)O)c1 [2,5-diacetoxybenzenesulfonic acid] was run?
Answer: conserves the acetoxyl groups in positions 2 and 5 when it binds to the protein

Question: Which “inhibition of FGF-1 induced mitogenesis” value [2] does the source give for CC(=O)Oc1ccc(O)c(S(=O)(=O)[O-])c1.[K+] [5A-2HBS, potassium 5-acetoxy-2-hydroxybenzene sulfonate] here?
Answer: Inhibition of FGF-1 induced mitogenesis

Question: What about the “rat glioma cell proliferation” value (rat C6 glioma cells) of the same compound?
Answer: inhibition of rat glioma cell proliferation

Question: Which “state of the compound when bound” value [3] does the source give for CC(=O)Oc1ccc(O)c(S(=O)(=O)O)c1 [5-acetoxy-2-hydroxybenzenesulfonic acid] here?
Answer: conserves the acetoxyl group in position 5 when it binds to the protein

Question: For C[C@H]1C[C@@H]2[C@H]([C@@H](O)C[C@@]3(C)[C@H]2CC[C@]3(O)C(=O)COC(=O)CCC(=O)O)[C@@]2(C)C=CC(=O)C=C12 [Solu-Medrol, reference compound], which “effect on body weight” value ([1]; Solu-Medrol 10 mg/kg/day i.m., two 7-day DSS cycles, vs vehicle) is on record?
Answer: significant effect on the body weight
